Measured values published in patent US11629201B2, “PSMA-binding agents and uses thereof” (ITM Isotope Technologies Munich SE, priority 2017, dated 2023).

Tested on: PC-3 PIP/flu tumor-bearing mice
Test: Biodistribution studies in PC-3 PIP/flu tumor-bearing mice
Conditions: for Tumor-to-blood / Tumor-to-kidney / Tumor-to-liver: PC-3 PIP tumor

Molecule `Cc1ccc(CCCC(=O)NCCCCC(NC(=O)CN2CCN(CC(=O)O)CCN(CC(=O)O)CCN(CC(=O)O)CC2)C(=O)NCC2CCC(C(=O)NC(Cc3ccc4ccccc4c3)C(=O)NCCCCC(NC(=O)NC(CCC(=O)O)C(=O)O)C(=O)O)CC2)cc1` (stereo not drawn) [44Sc-PSMA-ALB-06, metal not drawn] has a Tumor-to-blood (1 h p.i.) of 0.94 ± 0.11, a Tumor-to-kidney (1 h p.i.) of 0.77 ± 0.12 and a Tumor-to-liver (1 h p.i.) of 4.28 ± 0.52. For the same molecule, the Blood (4 h p.i.) was 18.4 ± 1.00 % IA/g, the Bone (4 h p.i.) was 2.50 ± 0.35 % IA/g and the Heart (4 h p.i.) was 6.48 ± 0.50 % IA/g. It also gave an Intestines (4 h p.i.) of 2.50 ± 0.13 % IA/g, a Kidneys (4 h p.i.) of 28.8 ± 2.46 % IA/g and a Muscle (4 h p.i.) of 2.24 ± 0.10 % IA/g. For the same molecule, the “PC-3 PIP Tumor” value (4 h p.i.) was 61.7 ± 7.32 % IA/g, the “PC-3 flu Tumor” value (4 h p.i.) was 4.37 ± 0.43 % IA/g and the Salivary glands (4 h p.i.) was 4.55 ± 0.41 % IA/g. The Spleen (4 h p.i.) was 4.10 ± 0.54 % IA/g, the Tumor-to-blood (4 h p.i.) was 3.35 ± 0.20 and the Tumor-to-kidney (4 h p.i.) was 2.14 ± 0.15. For the same molecule, the Tumor-to-liver (4 h p.i.) was 17.93 ± 3.32, the Blood (6 h p.i.) was 15.6 ± 0.75 % IA/g and the Bone (6 h p.i.) was 2.54 ± 0.27 % IA/g. It also gave an Intestines (6 h p.i.) of 2.07 ± 0.34 % IA/g, a Kidneys (6 h p.i.) of 21.7 ± 0.42 % IA/g and a Liver (6 h p.i.) of 3.67 ± 0.68 % IA/g. The Lung (6 h p.i.) was 9.44 ± 0.86 % IA/g, the “PC-3 PIP Tumor” value (6 h p.i.) was 72.9 ± 11.1 % IA/g and the “PC-3 flu Tumor” value (6 h p.i.) was 3.87 ± 0.45 % IA/g. It also gave a Salivary gland (6 h p.i.) of 4.03 ± 0.22 % IA/g, a Spleen (6 h p.i.) of 3.67 ± 0.37 % IA/g and a Tumor-to-blood (6 h p.i.) of 4.69 ± 0.67. The Tumor-to-kidney (6 h p.i.) was 3.35 ± 0.42 and the Tumor-to-liver (6 h p.i.) was 20.2 ± 3.43.

`O=C(O)CCC(NC(=O)NC(CCCCNC(=O)C(Cc1ccc2ccccc2c1)NC(=O)C1CCC(n2cc(CC(NC(=O)CN3CCN(CC(=O)O)CCN(CC(=O)O)CCN(CC(=O)O)CC3)C(=O)NC(CCCCNC(=O)CCCc3ccc(I)cc3)C(=O)O)nn2)CC1)C(=O)O)C(=O)O` (stereo not drawn) [^177Lu-PSMA-ALB-01, metal not drawn] was tested, and the Tumor-to-blood (1 h p.i.) was 0.30 ± 0.06, the Tumor-to-kidney (1 h p.i.) was 0.46 ± 0.04 and the Tumor-to-liver (1 h p.i.) was 1.56 ± 0.30. It also gave a Blood (4 h p.i.) of 25.6 ± 1.53 % IA/g, a Bone (4 h p.i.) of 3.01 ± 0.09 % IA/g and a Heart (4 h p.i.) of 8.71 ± 0.50 % IA/g. For the same molecule, the Intestines (4 h p.i.) was 4.17 ± 0.70 % IA/g, the Kidneys (4 h p.i.) was 24.6 ± 0.38 % IA/g and the Liver (4 h p.i.) was 5.92 ± 0.07 % IA/g. The Lung (4 h p.i.) was 14.1 ± 0.99 % IA/g, the Muscle (4 h p.i.) was 2.06 ± 0.80 % IA/g and the “PC-3 PIP Tumor” value (4 h p.i.) was 20.4 ± 0.39 % IA/g. For the same molecule, the “PC-3 flu Tumor” value (4 h p.i.) was 5.03 ± 1.61 % IA/g, the Salivary glands (4 h p.i.) was 5.20 ± 0.73 % IA/g and the Spleen (4 h p.i.) was 5.34 ± 0.90 % IA/g. For the same molecule, the Stomach (4 h p.i.) was 3.30 ± 0.05 % IA/g, the Tumor-to-blood (4 h p.i.) was 0.80 ± 0.03 and the Tumor-to-kidney (4 h p.i.) was 0.83 ± 0.03. For the same molecule, the Tumor-to-liver (4 h p.i.) was 3.45 ± 0.03, the Blood (8 h p.i.) was 21.0 ± 2.86 % IA/g and the Bone (8 h p.i.) was 2.54 ± 0.26 % IA/g. The Heart (8 h p.i.) was 7.16 ± 1.23 % IA/g, the Intestines (8 h p.i.) was 2.44 ± 0.17 % IA/g and the Kidneys (8 h p.i.) was 22.6 ± 2.38 % IA/g. It also gave a Liver (8 h p.i.) of 5.31 ± 1.23 % IA/g, a Lung (8 h p.i.) of 11.6 ± 0.83 % IA/g and a Muscle (8 h p.i.) of 1.63 ± 0.27 % IA/g. The “PC-3 PIP Tumor” value (8 h p.i.) was 25.5 ± 2.02 % IA/g, the “PC-3 flu Tumor” value (8 h p.i.) was 4.01 ± 0.79 % IA/g and the Salivary glands (8 h p.i.) was 4.45 ± 0.56 % IA/g. It also gave a Spleen (8 h p.i.) of 4.05 ± 0.69 % IA/g, a Stomach (8 h p.i.) of 2.45 ± 0.43 % IA/g and a Tumor-to-blood (8 h p.i.) of 1.22 ± 0.08. The Tumor-to-kidney (8 h p.i.) was 1.13 ± 0.07, the Tumor-to-liver (8 h p.i.) was 4.97 ± 1.21 and the Blood (24 h p.i.) was 14.2 ± 1.40 % IA/g. For the same molecule, the Bone (24 h p.i.) was 1.58 ± 0.06 % IA/g, the Heart (24 h p.i.) was 5.93 ± 0.65 % IA/g and the Intestines (24 h p.i.) was 2.12 ± 0.20 % IA/g. It also gave a Kidneys (24 h p.i.) of 22.7 ± 2.18 % IA/g, a Liver (24 h p.i.) of 2.92 ± 0.67 % IA/g and a Lung (24 h p.i.) of 8.62 ± 1.47 % IA/g. For the same molecule, the Muscle (24 h p.i.) was 1.34 ± 0.14 % IA/g, the “PC-3 PIP Tumor” value (24 h p.i.) was 38.2 ± 2.59 % IA/g and the “PC-3 flu Tumor” value (24 h p.i.) was 3.95 ± 0.82 % IA/g. For the same molecule, the Salivary glands (24 h p.i.) was 3.38 ± 0.32 % IA/g, the Spleen (24 h p.i.) was 3.60 ± 0.43 % IA/g and the Stomach (24 h p.i.) was 1.39 ± 0.07 % IA/g. The Tumor-to-blood (24 h p.i.) was 2.71 ± 0.39, the Tumor-to-kidney (24 h p.i.) was 1.69 ± 0.07 and the Tumor-to-liver (24 h p.i.) was 13.5 ± 2.79. The Blood (48 h p.i.) was 12.0 ± 2.18 % IA/g, the Bone (48 h p.i.) was 1.64 ± 0.34 % IA/g and the Heart (48 h p.i.) was 4.42 ± 0.81 % IA/g. It also gave an Intestines (48 h p.i.) of 1.84 ± 0.54 % IA/g, a Kidneys (48 h p.i.) of 25.2 ± 4.15 % IA/g and a Liver (48 h p.i.) of 3.03 ± 0.63 % IA/g. The Lung (48 h p.i.) was 7.67 ± 0.83 % IA/g, the Muscle (48 h p.i.) was 1.35 ± 0.46 % IA/g and the “PC-3 PIP Tumor” value (48 h p.i.) was 65.6 ± 1.84 % IA/g. The “PC-3 flu Tumor” value (48 h p.i.) was 4.64 ± 1.84 % IA/g, the Salivary glands (48 h p.i.) was 3.96 ± 0.98 % IA/g and the Spleen (48 h p.i.) was 4.62 ± 1.12 % IA/g. The Stomach (48 h p.i.) was 1.49 ± 0.47 % IA/g, the Tumor-to-blood (48 h p.i.) was 5.54 ± 0.76 and the Tumor-to-kidney (48 h p.i.) was 2.64 ± 0.40. It also gave a Tumor-to-liver (48 h p.i.) of 22.2 ± 4.11, a Blood (96 h p.i.) of 6.68 ± 0.85 % IA/g and a Bone (96 h p.i.) of 1.07 ± 0.22 % IA/g. The Heart (96 h p.i.) was 2.70 ± 0.37 % IA/g, the Intestines (96 h p.i.) was 1.05 ± 0.17 % IA/g and the Kidneys (96 h p.i.) was 13.0 ± 1.30 % IA/g. The Liver (96 h p.i.) was 1.88 ± 0.36 % IA/g, the Lung (96 h p.i.) was 5.07 ± 0.66 % IA/g and the Muscle (96 h p.i.) was 0.82 ± 0.12 % IA/g. For the same molecule, the “PC-3 PIP Tumor” value (96 h p.i.) was 62.3 ± 3.56 % IA/g, the “PC-3 flu Tumor” value (96 h p.i.) was 2.76 ± 0.23 % IA/g and the Salivary glands (96 h p.i.) was 2.22 ± 0.38 % IA/g. The Spleen (96 h p.i.) was 3.12 ± .015 % IA/g, the Stomach (96 h p.i.) was 0.81 ± 0.04 % IA/g and the Tumor-to-blood (96 h p.i.) was 9.39 ± 0.65. It also gave a Tumor-to-kidney (96 h p.i.) of 4.80 ± 0.20, a Tumor-to-liver (96 h p.i.) of 33.7 ± 4.33 and a Blood (144 h p.i.) of 5.78 ± 0.90 % IA/g. It also gave a Bone (144 h p.i.) of 0.99 ± 0.20 % IA/g, a Heart (144 h p.i.) of 2.23 ± 0.29 % IA/g and an Intestines (144 h p.i.) of 1.07 ± 0.13 % IA/g. For the same molecule, the Kidneys (144 h p.i.) was 10.2 ± 3.41 % IA/g, the Liver (144 h p.i.) was 1.56 ± 0.16 % IA/g and the Lung (144 h p.i.) was 4.90 ± 0.58 % IA/g. For the same molecule, the Muscle (144 h p.i.) was 0.66 ± 0.15 % IA/g, the “PC-3 PIP Tumor” value (144 h p.i.) was 78.4 ± 8.57 % IA/g and the “PC-3 flu Tumor” value (144 h p.i.) was 2.82 ± 0.24 % IA/g. The Salivary glands (144 h p.i.) was 1.68 ± 0.53 % IA/g, the Spleen (144 h p.i.) was 4.32 ± 0.57 % IA/g and the Stomach (144 h p.i.) was 0.84 ± 0.13 % IA/g. It also gave a Tumor-to-blood (144 h p.i.) of 13.8 ± 2.38, a Tumor-to-kidney (144 h p.i.) of 8.05 ± 1.77 and a Tumor-to-liver (144 h p.i.) of 50.5 ± 6.28. For the same molecule, the Blood (192 h p.i.) was 5.21 ± 1.37 % IA/g, the Bone (192 h p.i.) was 0.86 ± 0.17 % IA/g and the Heart (192 h p.i.) was 2.12 ± 0.68 % IA/g. It also gave an Intestines (192 h p.i.) of 1.02 ± 0.25 % IA/g, a Kidneys (192 h p.i.) of 7.56 ± 1.44 % IA/g and a Liver (192 h p.i.) of 1.51 ± 0.37 % IA/g. For the same molecule, the Lung (192 h p.i.) was 4.12 ± 0.96 % IA/g, the Muscle (192 h p.i.) was 0.64 ± 0.13 % IA/g and the “PC-3 PIP Tumor” value (192 h p.i.) was 75.6 ± 22.0 % IA/g. The “PC-3 flu Tumor” value (192 h p.i.) was 2.73 ± 0.84 % IA/g, the Salivary glands (192 h p.i.) was 1.78 ± 0.34 % IA/g and the Spleen (192 h p.i.) was 4.09 ± 1.12 % IA/g. For the same molecule, the Stomach (192 h p.i.) was 0.73 ± 0.12 % IA/g, the Tumor-to-blood (192 h p.i.) was 14.5 ± 1.84 and the Tumor-to-kidney (192 h p.i.) was 9.87 ± 1.05. The Tumor-to-liver (192 h p.i.) was 50.2 ± 7.38.
